Measured values published in paper PMC9952136 (Antibiotics, 2023).

Assays:
[1] = Pharmacokinetic studies of ENR and SAL in broilers (plasma, non-compartmental); conditions: for AUC(0-t) / AUC(0-inf) / Cmax / k el / MRT last / MRT inf / Tmax / half-life: AA broiler, plasma, po, 7.5 mg/kg, n=6, Mean ± SD; for AUC(0-t): AUC0-36h; for AUC(0-t) / AUC(0-inf) / Cmax / k el / MRT last / MRT inf / Tmax: broiler plasma; for AUC(0-inf): AUC0-∞; for k el: Ke; for MRT last: MRT0-36h; for MRT inf: MRT0-∞; for half-life: t1/2, broiler plasma;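 for all read-outs here: plasma drug levels measured by HPLC or LC-MS/MS, with PK parameters obtained through non-compartmental analysis in WinNonlin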
Method: Mobile phase compositions were 0.5 mol/L H3PO4-triethylamine (pH = 2.4, phase A) and acetonitrile (phase B) (82:18, v/v) [1, 18].
SAL (Shandong Lukang, Jining, China): The LC-MS/MS assay method for SAL were introduced in the previous research [21]. The separate system of HPLC used 0.1% formic acid solution (phase A) and methanol (phase B) as mobile phase. […] Positive ion scanning mode was used; DP, CE, and CXP are 59.1 V, 65.64 V, and 12 V, respectively.
Plasma sample: Add 0.8 mL of acetonitrile to 0.2 mL of plasma to precipitate proteins. After vortexing the mixture for 5 min, centrifuge at 12,000 rpm for 10 min. Transfer the supernatant to a new 10 mL tube. The supernatant was blown dry with nitrogen at 40 °C, and the pellet was redissolved with 1 mL of methanol. The methanol reconstituted solution was filtered through a 0.2 μm filter.
PK parameters were calculated with WinNonlin software using non-compartmental settings (version 6.4; Pharsight Corporation, Mountain View, CA, USA).

CYP3A4 [2] = experiment: mRNA (RT-qPCR) and protein (Western blot) expression of hepatic CYP3A4 in treated broilers; format: in vivo
Method: (§1) The relative expressions of CYP3A4, P-gp and BCRP in tissue of broiler and Caco-2 were evaluated via quantitative real-time PCR (RT–qPCR, Bio-Rad, Hercules, CA, USA). […] Relevant cells were treated as indicated and total RNA was extracted from cells and tissue using RNA isolater Total RNA Extraction Reagent (R401-01, Vazyme Biotech Co., Ltd., Nanjing, China) following the manufacturer’s protocols, then reverse-transcribed into cDNA using HiScript II Q Select RT SuperMix for Qpcr (R233-01, Vazyme Biotech Co., Ltd.). The cDNA was determined by quantitative RT-PCR using 2 × AceQ qPCR SYBR Green Master Mix (Q141-02, Vazyme Biotech Co., Ltd.) with the primers (listed in Supplementary Tables S1 and S2). All data were analyzed using the 2−ΔΔCt method.
These were then collected in a RIPA lysis buffer (P0013B, Beyotime, Shanghai, China) and incubated on a rocker with ice for 30 min. Cell and tissue lysates were centrifuged at 12,000× g/4 °C for 15 min and lysates were boiled at 100 °C for 5 min in 5× SDS Loading Buffer and resolved by SDS-PAGE. Proteins were transferred into a polyvinylidene fluoride (PVDF) membrane (Bio-Rad) and then incubated with the CYP3A4 Rabbit pAb (Cat#A2544, ABclonal, Wuhan, China), ABCG2 Rabbit pAb (Cat#A5661, ABclonal, Wuhan, China), P-gp Rabbit pAb (Cat#A11747, ABclonal, Wuhan, China) over night, respectively. They were then incubated with the HRP Goat Anti-Rabbit IgG (Cat#AS014, ABclonal, Wuhan, China) for 1.5 h. Immobilon Western Chemiluminescent HRP Substrate (Millipore) was used for protein detection. The immunoreactive bands were visualized on a gel imaging system (Tanon 5200 Multi, Tanon Technology Co., Ltd., Shanghai, China), and the intensities of the immunoreactive bands were quantified using Quantity One.

P-gp = P-gp gene and protein expression in Caco-2 cells (qPCR, WB); format: cell-based, human; conditions: ENR 5 and 20 μmol/L, SAL 0.5 and 2 μmol/L; 12 or 24 h
Method: as §1
(§2) These were then collected in a RIPA lysis buffer (P0013B, Beyotime, Shanghai, China) and incubated on a rocker with ice for 30 min. Cell and tissue lysates were centrifuged at 12,000× g/4 °C for 15 min and lysates were boiled at 100 °C for 5 min in 5× SDS Loading Buffer and resolved by SDS-PAGE. […] The immunoreactive bands were visualized on a gel imaging system (Tanon 5200 Multi, Tanon Technology Co., Ltd., Shanghai, China), and the intensities of the immunoreactive bands were quantified using Quantity One.

CYP3A4 [3] = experiment: Screening of CYP450 enzymes that metabolize SAL and ENR with positive inhibitors (KCZ) in broiler liver microsomes; format: in vitro ADME; conditions: 50 μmol/L ENR; 0.5 mg/mL broiler liver microsomes; KCZ pre-incubated 30 min at 41 °C, then 4 h
Method: (§3) Probe drugs: a volume of 0.2 mL cold acetonitrile were added into 0.05 mL microsome incubation solution, then vortexed for 2 min to extract target compounds. The mixture was centrifuged at 12,000 rpm for 15 min. The supernatant was filtered through a 0.2 μm filter.
Briefly, alpha-naphthoflavone (α-NIF, inhibitor of CYP1A2), sulfafenpyrazole (SUl, CYP2D6), sodium diethyldithiocarbamate (DIE, inhibitor of CYP2E1), omeprazole (OMP, inhibitor of CYP2C45) and ketoconazole (KCZ, inhibitor of CYP3A4) were incubated with 50 μmol/L SAL or the ENR-NADPH system, respectively. The system consisted of 0.5 mg/mL broiler liver microsomes, 0.05 mmol/L Tris-HCl buffer, and 1 mmol/L NADPH.

broiler CYP3A4 = experiment: Probe substrate (testosterone) assay of CYP3A4 activity in broiler liver microsomes; format: in vitro ADME
Method: as §3
(§4) […]. […] Except for testosterone, which was incubated for 30 min, all other probe drugs were incubated for 4 h.

CYP3A4 (broiler) = experiment: as above; format: in vitro ADME; conditions: chicken (broiler), probe testosterone (TS); 100 µmol/L; pre-incubated 30 min at 41 °C; broiler liver microsomes; probe testosterone; read-out: inhibition rate on CYP3A4 (TS metabolism)
Method: as §3, §4

BCRP = BCRP gene and protein expression in Caco-2 cells (qPCR, WB); format: cell-based, human; conditions: ENR 5 and 20 μmol/L; 12 and 24 h; concentration- and time-dependent
Method: as §1, §2

[4] = SAL (5 d) + ENR: SAL 60 mg/kg mixed feeding 5 days, then ENR 7.5 mg/kg gavage
[5] = SAL + ENR: ENR 7.5 mg/kg + SAL 6.0 mg/kg co-gavage
[6] = abstract, broilers, group not given

With `CCN1CCN(c2cc3c(cc2F)c(=O)c(C(=O)O)cn3C2CC2)CC1` [ENR, Enrofloxacin] the AUC(0-t) ([1]; ENR (7.5 mg/kg) gavage alone) was 12.8 ± 3.99 µg·h/mL, the AUC(0-t) [1, 4] was 15.3 ± 1.29 µg·h/mL and the AUC(0-t) [1, 5] was 16.7 ± 1.29 µg·h/mL. For the same compound, the AUC(0-inf) ([1]; ENR (7.5 mg/kg) gavage alone) was 13.5 ± 4.08 µg·h/mL, the AUC(0-inf) [1, 4] was 16 ± 1.45 µg·h/mL and the AUC(0-inf) [1, 5] was 17.5 ± 1.45 µg·h/mL. It also gave a Cmax ([1]; ENR (7.5 mg/kg) gavage alone) of 1.49 ± 0.54 µg/mL, a Cmax [1, 4] of 1.6 ± 0.16 µg/mL and a Cmax [1, 5] of 1.48 ± 0.16 µg/mL. For the same compound, the k el ([1]; ENR (7.5 mg/kg) gavage alone) was 1.94e-05 s⁻¹, the k el [1, 4] was 2.5e-05 s⁻¹ and the k el [1, 5] was 2.5e-05 s⁻¹. The MRT last ([1]; ENR (7.5 mg/kg) gavage alone) was 8.29 ± 1.03 h, the MRT last [1, 4] was 8.35 ± 0.52 h and the MRT last [1, 5] was 9.06 ± 0.52 h. The MRT inf ([1]; ENR (7.5 mg/kg) gavage alone) was 10.8 ± 1.76 h, the MRT inf [1, 4] was 10.1 ± 0.9 h and the MRT inf [1, 5] was 10.6 ± 0.9 h. It also gave a Tmax ([1]; ENR (7.5 mg/kg) gavage alone) of 1.5 ± 0.55 h, a Tmax [1, 4] of 2.17 ± 1.03 h and a Tmax [1, 5] of 2.67 ± 1.03 h. For the same compound, the half-life ([1]; ENR (7.5 mg/kg) gavage alone) was 7.45 ± 1.71 h, the half-life [1, 4] was 8.13 ± 0.86 h and the half-life [1, 5] was 8.65 ± 0.54 h. For the same compound, the “increase of area under the curve by SAL” value [1, 6] was 1.3 times, the “increase of elimination half-life by SAL” value [1, 6] was 1.2 times and the “effect of ENR on mRNA and protein levels of CYP3A4 in liver” value (CYP3A4 [2]; ENR (5d) + SAL group contrasted with single SAL group) was “significantly inhibited”. The “effect of ENR on CYP3A4 gene expression in liver” value (CYP3A4 [2]; ENR + SAL group contrasted with single SAL group) was “overexpression”, the “effect on protein expression of CYP3A4 in liver” value (CYP3A4 [2]; single gavage (ENR 7.5 mg/kg or SAL 6.0 mg/kg) compared with physiological saline group) was “induced” and the “gene and protein expressions of P-gp in Caco-2 cells” value (P-gp) was “significantly decreased”. The “decrease of ENR metabolic rate after addition of the CYP3A4-specific inhibitor KCZ” value (CYP3A4 [3]) was 32%, the “effect on CYP3A4 at short pre-incubation” value (broiler CYP3A4; 0 and 3 min of pre-incubation) was “induced” and the “dependence of CYP3A4 inhibition on pre-incubation time” value (broiler CYP3A4; 100 μmol/L, pre-incubated 0, 3, 5, 15, 30 min) was “time-dependent”. The “dependence of CYP3A4 inhibition on concentration” value (broiler CYP3A4; 50, 100 and 500 μmol/L) was “concentration-dependent inhibitory effects”, the inhibition at 30 min, 100 µmol/L (CYP3A4 (broiler)) was 32% and the “expression of BCRP in Caco-2 cells” value (BCRP) was “decreased”.
